# Assay results: patent US6610791B2, “Photosensitive compound and photosensitive resin” (Toyo Gosai Kogyo Co., Ltd., priority 2000, dated 2003)
# Assay: Measurement of solubility in water at 25° C.
# Type: physicochemical
# Method: Measurement of [5-(sodium 4-azidobenzylidene-2-sulfonate)-3-(N-(4,4′-dimethoxybutyl)carbamoyl)methyl]-rhodanine in Terms of Solubility in Water and Molar Absorption Coefficient
# Measurement of solubility in water at 25° C. was carried out for the compound obtained in Example 3 or 6, and for the compound, which was obtained through the method of Example 2 described in Japanese Patent Application Laid-Open (kokai) No. 10-310769, represented by the following formula. [drawing 17]
# Further, UV spectra were measured for the two compounds in water serving as a solvent so as to measure the molar absorption coefficient ε at a wavelength of maximum absorption.
substance,measurement,setting,value
"[5-(sodium 4-azidobenzylidene-2-sulfonate)-3-(N-(4,4′-dimethoxybutyl)carbamoyl)methyl]rhodanine",solubility in water,in 100 g of water,5.4 g
same,solubility of the former compound relative to the latter (reference) compound,"water, ratio of the invention compound to the reference compound",approximately five
